From ChEMBL document CHEMBL5226341, “Discovery of a Potent FLT3 Inhibitor (LT-850-166) with the Capacity of Overcoming a Variety of FLT3 Mutations” (J Med Chem, 2021)
Calls of active or inactive are those of the source. The calls are words filed in the database; no cut-off is given here.

What was measured:
[1] = system: Receptor-type tyrosine-protein kinase FLT3 (Homo sapiens), P36888 [UNDEFINED MUTATION]; format: cell-based; conditions: BaF3, dose 0.1-100 nM, time 4.0 hrs
MV4-11 [2] = assay: Induction of apoptosis in human MV4-11 cells assessed as early apoptotic cells at 100 nM incubated for 24 hrs by AnnexinV-FITC/PI staining based flow cytometry (reference value: 3.09%); format: functional
[3] = Half life in Sprague-Dawley rat at 10 mg/kg, po measured for 24 hrs by LC-MS/MS analysis; format: ADME, organism-based; conditions: in vivo
MV4-11 [4] = assay: Induction of apoptosis in human MV4-11 cells assessed as late apoptotic cells at 50 nM incubated for 24 hrs by AnnexinV-FITC/PI staining based flow cytometry (reference value: 4.2%); format: functional
[5] = MRT (0 to t) in Sprague-Dawley rat at 10 mg/kg, po measured for 24 hrs by LC-MS/MS analysis; format: ADME, organism-based; conditions: in vivo
[6] = Toxicity in BALB/c mouse xenografted with human MV4-11 cells assessed as neutrophil count at 15 mg/kg, iv for 21 days; format: organism-based; conditions: in vivo, 504 h, time 21 day
[7] = Half-life in Sprague-Dawley rat at 1 mg/kg, iv measured for 24 hrs by LC-MS/MS analysis; format: ADME, organism-based; conditions: in vivo
MV4-11 [8] = assay: Induction of apoptosis in human MV4-11 cells assessed as necrotic cells at 50 nM incubated for 24 hrs by AnnexinV-FITC/PI staining based flow cytometry (reference value: 0.45%); format: functional
[9] = Cmax in Sprague-Dawley rat at 10 mg/kg, po measured for 24 hrs by LC-MS/MS analysis; format: ADME, organism-based; set-up: time 24 hrs, dose 10 mg/kg, route po; conditions: in vivo
[10] = Toxicity in BALB/c mouse xenografted with human MV4-11 cells assessed as change in body weight at 15 mg/kg, iv BID for 21 days; format: organism-based; conditions: in vivo, 504 h, time 21 day
MV4-11 [11] = assay: Antitumor activity against human MV4-11 cells xenografted in BALB/c mouse assessed as inhibition rate of tumor weight at 15 mg/kg, iv BID for 21 days by vernier caliper analysis; format: functional; conditions: MV4-11, 504 h, time 21 day
[12] = Antiproliferative activity against mouse BaF3 cells assessed as reduction in cell viability measured after 72 hrs by CellTiterGlo luminescent assay; format: toxicity, cell-based
BaF3 [13] = assay: cells; conditions: Mus musculus, BaF3, 72 h
Description: Antiproliferative activity against mouse BaF3 cells harboring FLT3-ITD-D835V mutant assessed as reduction in cell viability measured after 72 hrs by CellTiterGlo luminescent assay

Panc02 = assay: Antiproliferative activity against mouse Panc02 cells assessed as reduction in cell viability measured after 72 hrs by CellTiterGlo luminescent assay; format: functional, cell-based; conditions: Panc02, 72 h
[14] = Ratio of IC50 for antiproliferative activity against mouse BaF3 cells harboring FLT3-ITD-F691L mutant to IC50 for antiproliferative activity against mouse BaF3 cells harboring FLT3-ITD mutant; format: functional
[15] = Toxicity in BALB/c mouse xenografted with human MV4-11 cells assessed as morphological changes in heart at 15 mg/kg, iv for 21 days by H and E staining based analysis; format: organism-based; conditions: in vivo, 504 h, time 21 day
[16] = system: Receptor-type tyrosine-protein kinase FLT3 (Homo sapiens), P36888 [UNDEFINED MUTATION]; assay: Inhibition of FLT3-ITD-F691L mutant (unknown origin) transformed in mouse BaF3 cells assessed as inhibition of STAT5 phosphorylation at Tyr694 residue incubated for 4 hrs by western blot analysis; format: cell-based; conditions: dose 0.1-100 nM
MV4-11 [17] = assay: Induction of cell cycle arrest in human MV4-11 cells assessed as proportion of cells at G1 phase at 50 nM incubated for 24 hrs by PI staining based flow cytometry (reference value: 56%); format: functional
HCD-57 [18] = assay: Induction of apoptosis in mouse HCD-57 cells harboring FLT3-D835Y mutant at 100 nM incubated for 24 hrs by AnnexinV-FITC/PI staining based flow cytometry; format: functional, cell-based
[19] = system: Receptor-type tyrosine-protein kinase FLT3 (Homo sapiens), P36888 [UNDEFINED MUTATION]; format: cell-based; conditions: BaF3, dose 0.1-100 nM, time 4.0 hrs; remark: listed apart in the source
[20] = Ratio of IC50 for antiproliferative activity against mouse BaF3 cells harboring FLT3-ITD-Y842H mutant to IC50 for antiproliferative activity against mouse BaF3 cells harboring FLT3-ITD mutant; format: functional
BaF3 [21] = assay: Antiproliferative activity against mouse BaF3 cells harboring FLT3-ITD-F691L mutant assessed as residual cell viability at 50 nM incubated for 72 hrs by CellTiterGlo luminescent assay; format: functional
HCD-57 [22] = assay: Antiproliferative activity against mouse HCD-57 cells harboring FLT3-ITD mutant assessed as reduction in cell viability measured after 72 hrs by CellTiterGlo luminescent assay; format: functional, cell-based
A549 = assay: Antiproliferative activity against human A549 cells assessed as reduction in cell viability measured after 72 hrs by CellTiterGlo luminescent assay; format: functional, cell-based; conditions: A549, 72 h
[23] = system: Receptor-type tyrosine-protein kinase FLT3 (Homo sapiens), P36888 [UNDEFINED MUTATION]; format: cell-based; conditions: BaF3, dose 0.1-100 nM, time 4.0 hrs; remark: listed apart in the source
[24] = Toxicity in BALB/c mouse xenografted with human MV4-11 cells assessed as platelet count at 15 mg/kg, iv for 21 days; format: organism-based; conditions: in vivo, 504 h, time 21 day
MKN-45 = assay: Antiproliferative activity against human MKN-45 cells assessed as reduction in cell viability measured after 72 hrs by CellTiterGlo luminescent assay; format: functional, cell-based; conditions: MKN-45, 72 h
[25] = Toxicity in BALB/c mouse xenografted with human MV4-11 cells assessed as morphological changes in spleen at 15 mg/kg, iv for 21 days by H and E staining based analysis; format: organism-based; conditions: in vivo, 504 h, time 21 day
MV4-11 [26] = assay: Induction of cell cycle arrest in human MV4-11 cells assessed as proportion of cells at G1 phase at 10 nM incubated for 24 hrs by PI staining based flow cytometry (reference value: 56%); format: functional
[27] = Clearance in Sprague-Dawley rat at 1 mg/kg, iv measured for 24 hrs by LC-MS/MS analysis; format: ADME, organism-based; conditions: in vivo
[28] = Toxicity in ICR mouse assessed as change in body weight at 100 mg/kg, iv administered as single dose and measured for 14 days; format: organism-based; conditions: in vivo, 336 h, time 14 day
HCD-57 [29] = assay: Induction of cell cycle arrest in mouse HCD-57 cells harboring FLT3-ITD mutant at 100 nM incubated for 24 hrs by PI staining based flow cytometry; format: functional
[30] = Toxicity in BALB/c mouse xenografted with human MV4-11 cells assessed as change in body weight at 15 mg/kg, iv QD for 21 days; format: organism-based; conditions: in vivo, 504 h, time 21 day
[31] = AUC (0 to t) in Sprague-Dawley rat at 10 mg/kg, po measured for 24 hrs by LC-MS/MS analysis; format: ADME, organism-based; set-up: time 24 hrs, dose 10 mg/kg, route po; conditions: in vivo
[32] = Tmax in Sprague-Dawley rat at 10 mg/kg, po measured for 24 hrs by LC-MS/MS analysis; format: ADME, organism-based; conditions: in vivo
[33] = molecular target: Receptor-type tyrosine-protein kinase FLT3 (Homo sapiens) (UniProt P36888); assay: Inhibition of FLT3 in human MV4-11 cells assessed as inhibition of STAT5 phosphorylation at Tyr694 residue incubated for 4 hrs by western blot analysis; format: cell-based; conditions: dose 0.1-100 nM
MV4-11 [34] = assay: Induction of apoptosis in human MV4-11 cells assessed as necrotic cells at 100 nM incubated for 24 hrs by AnnexinV-FITC/PI staining based flow cytometry (reference value: 0.45%); format: functional
U-937 = assay: Antiproliferative activity against human U-937 cells assessed as reduction in cell viability measured after 72 hrs by CellTiterGlo luminescent assay; format: functional, cell-based; conditions: U-937, 72 h
BaF3 [35] = format: functional, cell-based; conditions: Mus musculus, BaF3, 72 h
MV4-11 [36] = assay: Induction of apoptosis in human MV4-11 cells assessed as necrotic cells at 10 nM incubated for 24 hrs by AnnexinV-FITC/PI staining based flow cytometry (reference value: 0.45%); format: functional

Chain of Receptor-type tyrosine-protein kinase FLT3 (Homo sapiens), P36888 [UNDEFINED MUTATION] (P36888 whole entry, looked up, stated change not applied): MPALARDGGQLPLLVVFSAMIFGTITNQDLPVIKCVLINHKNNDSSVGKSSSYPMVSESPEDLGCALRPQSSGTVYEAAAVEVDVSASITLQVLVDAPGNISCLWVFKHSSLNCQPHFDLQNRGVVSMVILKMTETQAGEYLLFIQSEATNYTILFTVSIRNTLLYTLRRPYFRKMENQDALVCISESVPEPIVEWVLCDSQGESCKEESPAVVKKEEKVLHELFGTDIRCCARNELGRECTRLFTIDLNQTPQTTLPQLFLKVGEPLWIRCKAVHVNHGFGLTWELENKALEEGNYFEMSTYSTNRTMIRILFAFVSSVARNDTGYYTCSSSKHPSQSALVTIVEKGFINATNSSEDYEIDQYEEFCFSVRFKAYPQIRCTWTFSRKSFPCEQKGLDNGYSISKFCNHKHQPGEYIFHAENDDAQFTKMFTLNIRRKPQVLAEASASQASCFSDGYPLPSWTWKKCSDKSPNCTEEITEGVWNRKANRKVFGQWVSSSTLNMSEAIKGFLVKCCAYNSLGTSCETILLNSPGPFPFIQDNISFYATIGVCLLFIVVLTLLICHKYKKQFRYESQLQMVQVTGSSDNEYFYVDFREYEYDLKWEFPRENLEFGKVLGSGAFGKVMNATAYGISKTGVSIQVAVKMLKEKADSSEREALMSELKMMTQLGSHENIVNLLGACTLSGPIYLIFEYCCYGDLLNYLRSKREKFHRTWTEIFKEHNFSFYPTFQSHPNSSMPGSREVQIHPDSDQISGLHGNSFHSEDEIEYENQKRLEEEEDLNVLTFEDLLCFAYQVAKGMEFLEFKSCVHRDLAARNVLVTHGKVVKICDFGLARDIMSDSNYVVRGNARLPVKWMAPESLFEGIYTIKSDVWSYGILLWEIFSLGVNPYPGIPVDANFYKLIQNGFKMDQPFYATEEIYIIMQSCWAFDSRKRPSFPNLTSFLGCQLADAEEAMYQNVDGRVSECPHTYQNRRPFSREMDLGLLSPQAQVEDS
Chain of Receptor-type tyrosine-protein kinase FLT3 (Homo sapiens) (P36888 whole entry): as the sequence (P36888 whole entry, looked up, stated change not applied) above

For `CCN1CCN(c2ccc(C(=O)Nc3cc(-c4ccc5ncn(Cc6c(Cl)cccc6Cl)c5c4)[nH]n3)cc2)CC1`, the inhibition [1] was “Dose-Dependent Effect”, the Activity (MV4-11 [2]) was 15.2% and the half-life [3] was 3.58 h. For the same compound, the Activity (MV4-11 [4]) was 26.3%, the MRT last at 24 h [5] was 3.63 h and the Activity [6] was “Non-Toxic”. The half-life [7] was 2.25 h, the Activity (MV4-11 [8]) was 0.87% and the Cmax [9] was 9.31 ng/mL. For the same compound, the Activity [10] was “Non-Toxic”, the inhibition in vivo at 15 mg/kg (MV4-11 [11]) was 85.2% and the IC50 at 72 h [12] was 4.09 µM. The IC50 (BaF3 [13]) was < 0.0015 µM, the IC50 (Panc02) was 2.75 µM and the “Ratio IC50” value [14] was 1.09. The Activity [15] was “Non-Toxic”, the inhibition [16] was “Dose-Dependent Effect” and the Activity (MV4-11 [17]) was 88.1%. The Activity (HCD-57 [18]) was “Active”, the inhibition [19] was “Dose-Dependent Effect” and the “Ratio IC50” value [20] was <0.2. For the same compound, the Activity (BaF3 [21]) was 2.54%, the Activity (HCD-57 [22]) was “Active” and the IC50 (A549) was 3.66 µM. The inhibition [23] was “Dose-Dependent Effect”, the Activity [24] was “Non-Toxic” and the IC50 (MKN-45) was 4.03 µM. For the same compound, the Activity [25] was “Non-Toxic”, the Activity (MV4-11 [26]) was 88.7% and the clearance [27] was 2.41 L/h/kg. For the same compound, the Activity [28] was “Non-Toxic”, the Activity (HCD-57 [29]) was “Active” and the Activity [30] was “Non-Toxic”. The AUC(0-t) at 24 h [31] was 0.0509 µg·h/mL, the Tmax [32] was 1.33 h and the inhibition [33] was “Dose-Dependent Effect”. The Activity (MV4-11 [34]) was 0.61%, the IC50 (U-937) was > 2 µM and the IC50 (BaF3 [35]) was < 0.0015 µM. It also gave an Activity (MV4-11 [36]) of 1.3%.
